Values of other authors, collected in patent publication US20230046815A1, “Wound honey with a pump dispenser” (priority 2021, published 2023).

Test system: Salmonella sp.
Conditions: single agent

Row | Structure (SMILES) | Minimal Bactericidal Concentration
1 | O=C(O)CC(O)(CC(=O)O)C(=O)O [Citric Acid] | 5%
2 | OO [Hydrogen Peroxide] | 3.12%
